Assay results as given in ChEMBL document CHEMBL1201862, “PubChem BioAssay data set” (2004).
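Protocol summary: plate cells (96-well), add compound at 5 concentrations, incubate 48 h, interpolate endpoints linearly. GI50 = concentration required for 50% inhibition of growth.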 Activity calls are given as the source filed them. Rule as the data show it: active = GI50 up to about 1.1 µM and inactive = higher.

Legend:
Assay in all cases: growth of human tumour cells (NCI), 48 h
HOP-18 = system: HOP-18
LOX IMVI = system: LOX IMVI
NCI-H23 = system: NCI-H23
Malme-3M = system: Malme-3M
SF-539 = system: SF-539
SNB-78 = system: SNB-78
UACC-62 = system: UACC-62
SF-295 = system: SF-295
HCC 2998 = system: HCC 2998
HOP-62 = system: HOP-62
SW-620 = system: SW-620
UACC-257 = system: UACC-257
SNB-75 = system: SNB-75
RXF 631 = system: RXF 631
SF-268 = system: SF-268
A549 = system: A549
XF498 = system: XF498
LXFL 529 = system: LXFL 529
UO-31 = system: UO-31
SK-OV-3 = system: SK-OV-3
HOP-92 = system: HOP-92
SN12C = system: SN12C
HT-29 = system: HT-29
786-0 = system: 786-0
NCI-H460 = system: NCI-H460
COLO 205 = system: COLO 205
K562 = system: K562
SK-MEL-5 = system: SK-MEL-5
HCT-116 = system: HCT-116
OVCAR-8 = system: OVCAR-8
KM-20L2 = system: KM-20L2
DMS-114 = system: DMS-114
HCT-15 = system: HCT-15
SNB-19 = system: SNB-19
NCI-H522 = system: NCI-H522
KM12 = system: KM12
EKVX = system: EKVX
CAKI-1 = system: CAKI-1
M14 = system: M14
OVCAR-5 = system: OVCAR-5
A498 = system: A498
TK-10 = system: TK-10
OVCAR-3 = system: OVCAR-3
SK-MEL-28 = system: SK-MEL-28
SR = system: SR
DLD-1 = system: DLD-1
HL-60 = system: HL-60
SK-MEL-2 = system: SK-MEL-2
ACHN = system: ACHN
U-251 = system: U-251
DMS-273 = system: DMS-273
MOLT-4 = system: MOLT-4
NCI-H226 = system: NCI-H226
OVCAR-4 = system: OVCAR-4
RXF 393 = system: RXF 393
IGROV-1 = system: IGROV-1
CCRF-CEM = system: CCRF-CEM
M19-MEL = system: M19-MEL
RPMI-8226 = system: RPMI-8226

## O=C(/C=C/c1ccccc1O)c1ccc([N+](=O)[O-])cc1
HOP-18
  GI50: 30.1 µM (inactive)
LOX IMVI
  GI50: 15.8 µM (inactive)
NCI-H23
  GI50: 11.3 µM (inactive)
Malme-3M
  GI50: 44 µM (inactive)
SF-539
  GI50: 15.4 µM (inactive)
SNB-78
  GI50: 20.9 µM (inactive)
UACC-62
  GI50: 14.7 µM (inactive)
SF-295
  GI50: 21.7 µM (inactive)
HCC 2998
  GI50: 16.5 µM (inactive)
HOP-62
  GI50: 16.4 µM (inactive)
SW-620
  GI50: 16.6 µM (inactive)
UACC-257
  GI50: 53.3 µM (inactive)
SNB-75
  GI50: 7.8 µM (inactive)
RXF 631
  GI50: 18.7 µM (inactive)
SF-268
  GI50: 18 µM (inactive)
A549
  GI50: 22.5 µM (inactive)
XF498
  GI50: 16.9 µM (inactive)
LXFL 529
  GI50: 13.4 µM (inactive)
UO-31
  GI50: 19.1 µM (inactive)
SK-OV-3
  GI50: 26.8 µM (inactive)
HOP-92
  GI50: 26.6 µM (inactive)
SN12C
  GI50: 15.5 µM (inactive)
HT-29
  GI50: 19.9 µM (inactive)
786-0
  GI50: 17.3 µM (inactive)
NCI-H460
  GI50: 22.7 µM (inactive)
COLO 205
  GI50: 12.5 µM (inactive)
K562
  GI50: 20.9 µM (inactive)
SK-MEL-5
  GI50: 20.1 µM (inactive)
HCT-116
  GI50: 15.6 µM (inactive)
OVCAR-8
  GI50: 15.5 µM (inactive)
KM-20L2
  GI50: 18.8 µM (inactive)
DMS-114
  GI50: 10.3 µM (inactive)
HCT-15
  GI50: 17 µM
SNB-19
  GI50: 16.6 µM (inactive)
NCI-H522
  GI50: 17.3 µM (inactive)
KM12
  GI50: 18.5 µM (inactive)
EKVX
  GI50: 10.6 µM (inactive)
CAKI-1
  GI50: 18.5 µM (inactive)
M14
  GI50: 20.9 µM (inactive)
OVCAR-5
  GI50: 22.1 µM (inactive)
A498
  GI50: 20.8 µM (inactive)
TK-10
  GI50: 26.7 µM (inactive)
OVCAR-3
  GI50: 12.4 µM (inactive)
SK-MEL-28
  GI50: 16.1 µM (inactive)
SR
  GI50: 19.4 µM (inactive)
DLD-1
  GI50: 12.9 µM (inactive)
HL-60
  GI50: 16.4 µM (inactive)
SK-MEL-2
  GI50: 19.8 µM (inactive)
ACHN
  GI50: 11.9 µM (inactive)
U-251
  GI50: 14.6 µM (inactive)
DMS-273
  GI50: 15.2 µM (inactive)
MOLT-4
  GI50: 22.3 µM (inactive)
NCI-H226
  GI50: 18 µM (inactive)
OVCAR-4
  GI50: 12 µM (inactive)
RXF 393
  GI50: 11 µM (inactive)
IGROV-1
  GI50: 12.9 µM (inactive)
CCRF-CEM
  GI50: 15.8 µM (inactive)
M19-MEL
  GI50: 18.4 µM (inactive)

## CCOC(=O)/C(=C/c1ccc[nH]1)P(=O)(OCC)OCC
HOP-18
  GI50: > 100 µM (inactive)
LOX IMVI
  GI50: > 100 µM (inactive)
NCI-H23
  GI50: > 100 µM (inactive)
Malme-3M
  GI50: > 100 µM (inactive)
SF-539
  GI50: > 100 µM (inactive)
SNB-78
  GI50: > 100 µM (inactive)
UACC-62
  GI50: > 100 µM (inactive)
RPMI-8226
  GI50: > 100 µM (inactive)
SF-295
  GI50: > 100 µM (inactive)
HCC 2998
  GI50: > 100 µM (inactive)
HOP-62
  GI50: > 100 µM (inactive)
SW-620
  GI50: > 100 µM (inactive)
UACC-257
  GI50: > 100 µM (inactive)
SNB-75
  GI50: 77.6 µM (inactive)
RXF 631
  GI50: > 100 µM (inactive)
SF-268
  GI50: > 100 µM (inactive)
A549
  GI50: > 100 µM (inactive)
XF498
  GI50: > 100 µM (inactive)
LXFL 529
  GI50: > 100 µM (inactive)
UO-31
  GI50: > 100 µM (inactive)
SK-OV-3
  GI50: > 100 µM (inactive)
HOP-92
  GI50: 94.2 µM (inactive)
SN12C
  GI50: > 100 µM (inactive)
HT-29
  GI50: > 100 µM (inactive)
786-0
  GI50: > 100 µM (inactive)
NCI-H460
  GI50: > 100 µM (inactive)
COLO 205
  GI50: > 100 µM (inactive)
K562
  GI50: > 100 µM (inactive)
SK-MEL-5
  GI50: > 100 µM (inactive)
HCT-116
  GI50: > 100 µM (inactive)
OVCAR-8
  GI50: > 100 µM (inactive)
KM-20L2
  GI50: > 100 µM (inactive)
DMS-114
  GI50: > 100 µM (inactive)
SNB-19
  GI50: > 100 µM (inactive)
NCI-H522
  GI50: > 100 µM (inactive)
KM12
  GI50: > 100 µM (inactive)
EKVX
  GI50: > 100 µM (inactive)
CAKI-1
  GI50: > 100 µM (inactive)
M14
  GI50: > 100 µM (inactive)
OVCAR-5
  GI50: > 100 µM (inactive)
TK-10
  GI50: > 100 µM (inactive)
OVCAR-3
  GI50: > 100 µM (inactive)
SK-MEL-28
  GI50: > 100 µM (inactive)
SR
  GI50: > 100 µM (inactive)
DLD-1
  GI50: > 100 µM (inactive)
HL-60
  GI50: > 100 µM (inactive)
SK-MEL-2
  GI50: > 100 µM (inactive)
ACHN
  GI50: > 100 µM (inactive)
U-251
  GI50: > 100 µM (inactive)
DMS-273
  GI50: > 100 µM (inactive)
MOLT-4
  GI50: > 100 µM (inactive)
NCI-H226
  GI50: > 100 µM (inactive)
OVCAR-4
  GI50: > 100 µM (inactive)
RXF 393
  GI50: > 100 µM (inactive)
CCRF-CEM
  GI50: > 100 µM (inactive)
M19-MEL
  GI50: > 100 µM (inactive)
